In PubChem BioAssay (NCI) one finds TGI and GI50 data, which are given here for 14 compounds.

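All cell lines were grown in 96-well plates and treated with compound for 48 hours. At the GI50, growth is halved. TGI denotes the concentration required for complete inhibition of growth.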

Common to all, as to experiment: NCI anticancer screen, dose series, 48 h
In test [1] the test system is COLO 205 colon.
The subject of test [2] is SR leukemia.
The subject of test [3] is SK-MEL-5 melanoma.
Test [4] relates to OVCAR-8 ovarian.
Test [5] has as its system IGROV1 ovarian.
Test [6] deals with NCI-H522 lung.
The test system of test [7] is UACC-62 melanoma.
The subject of test [8] is OVCAR-5 ovarian.
Test [9] relates to NCI/ADR-RES ovarian.

Consider `COc1cc2c(cc1OC)-c1c(cnn1C1OC(COC(C)=O)C(OC(C)=O)C(OC(C)=O)C1OC(C)=O)CC2` (centres undefined), for which the TGI was more than 100 µM in [1]; more than 28.7 µM in [2]; more than 100 µM in test [3]; more than 100 µM in [4]; more than 100 µM in test [5]; 37.3 µM in test [6]. The TGI in [7] and in [8] was more than 100 µM each time.
`O=C(Nc1ccc(C(F)(F)F)cc1[N+](=O)[O-])C(=O)C(C(=O)c1ccc2ccccc2c1)C1OC(=O)c2ccccc21` (centres undefined): the TGI is 32.7 µM in test [1]; more than 100 µM in test [2]; 18.8 µM in test [3]; 19.8 µM in test [4]; more than 66.3 µM in test [5]; 16.4 µM in test [6]. For the same compound, the TGI stood at 20.4 µM in test [7] and 26.5 µM in test [8].
Take `O=[N+]([O-])c1ccc(Cc2nc3ccccc3s2)cc1`: the TGI in test [1], in test [2], in test [3], in [4], in test [5] and in test [6] was more than 100 µM each time. For the same compound, the TGI in test [7] and in test [8] was more than 100 µM throughout.
For the compound `Cc1ccccc1C(C#N)/C(=N/NC(=O)c1cc2ccccc2cc1O)C(=O)Nc1cccc(Cl)c1` (centres undefined), the TGI was 72.5 µM in test [1]; 84.5 µM in test [2]; 27.4 µM in test [3]; more than 100 µM in test [4]; 65.3 µM in test [5]; 78.3 µM in test [6]. Moreover, the TGI is 18.1 µM in test [7] and 51.2 µM in test [8].
With `COc1ccccc1NC(=O)CC(=O)n1nc(C)c(N=Nc2ccccc2F)c1C`, the TGI in test [1], in test [2], in test [3], in [4], in [5] and in [6] was more than 100 µM in each case. Also, the TGI in test [7] and in test [8] was more than 100 µM in each case.
In the case of `CCCCOC(=O)/C(CC(=O)C=C(C)C)=N\NS(=O)(=O)c1ccc(C)cc1`, the TGI in test [1] is more than 100 µM; in test [2], 71.8 µM; in test [3] it was more than 100 µM; in test [4], more than 100 µM; in test [5], more than 100 µM; in test [6], more than 100 µM. The TGI in test [7] and in test [8] was more than 100 µM each time.
Turning to `O=C1CCC(c2nc3ccccc3o2)C(=O)N1` (centres undefined), the TGI in test [1], in test [2], in [3], in test [4], in test [5] and in test [6] was more than 100 µM throughout. The TGI in test [7] is more than 100 µM.
Take `N#CCCc1nc2ccc(Br)cc2c(=O)n1-c1ccc(O)c([N+](=O)[O-])c1`: the TGI in test [1] was 47.9 µM; in [3] it was 36.3 µM; in test [4], more than 100 µM; in test [5], 47.7 µM; in test [6] it was 31.8 µM; in test [7] it was 38.5 µM. Moreover, the TGI in [8] was more than 100 µM.
Take `COc1ccc(C2(CN(C)C)COc3cc(OC)c(OC)cc3C2=O)cc1OC` (centres undefined): the TGI was 76.2 µM in [1]; more than 100 µM in test [2]; 60.7 µM in test [3]; more than 100 µM in [4]; more than 100 µM in test [5]; more than 100 µM in test [6]. In [7], this compound had a TGI of more than 100 µM.
Regarding `CCc1ccccc1NC(=O)CCc1nc(=S)[nH][nH]1`, the TGI in [1], in [2], in test [3], in test [4], in [5] and in [6] was more than 100 µM in each case. The TGI in test [7] and in [8] was more than 100 µM throughout.
Take `Cn1c2ccccc2c2c(=O)n(CCCC(=O)NCC(=O)OC(=NC3CCCCC3)NC3CCCCC3)c3c(-c4ccccc4)nnn3c21`: the GI50 is 2.81 µM in test [1]; 15.6 µM in test [9]; 3.04 µM in test [2]; 5.98 µM in test [3]; 7.37 µM in test [4]; 2.84 µM in [5]. In addition, the figures for the GI50 in [6], in test [7] and in test [8] were 15.9 µM, 25.8 µM and 15.3 µM, respectively. Moreover, the TGI is more than 100 µM in test [1]; 33.5 µM in test [9]; 5.09 µM in [2]; 31.6 µM in [3]; more than 100 µM in test [4]; 33 µM in test [5]. Further, the TGI was 80.4 µM in [6], more than 100 µM in [7] and 32.5 µM in [8].
For `Nc1cc(N)c2nc(-c3ccccc3)c(Nc3ccc(F)cc3)nc2c1`, the GI50 was 20.3 µM in [1]; 23.8 µM in test [9]; 5.36 µM in [2]; 14.4 µM in [3]; 12.4 µM in test [4]; 16.6 µM in [5]. Besides, the values for the GI50 in test [6], in test [7] and in [8] were more than 100 µM, 16.1 µM and 38.4 µM, respectively. The TGI in test [1] is 55.9 µM; in test [9], 57.5 µM; in test [2], more than 100 µM; in [3], 33 µM; in test [4], 30.3 µM; in test [5], more than 100 µM. In addition, the TGI is more than 100 µM in test [6], 31.7 µM in [7] and more than 100 µM in [8].
Take `Cc1cc2c(cn1)C(=O)OCC2`: the TGI in [2], in [4], in test [5], in test [7] and in [8] was more than 100 µM throughout.
Consider `O=C1N=C2c3c(sc4c3CCCC4)N=CN2C1N=Nc1ccc(Cl)cc1` (centres undefined), for which the GI50 in test [1] is 10.7 µM; in test [9], 26.2 µM; in test [3], 3.61 µM; in test [4], 31.3 µM; in test [5], 49.6 µM; in [6], 26.6 µM. The GI50 in [7] is 16.7 µM; in [8] it was 22.6 µM. Also, the TGI was 39.3 µM in test [1]; more than 100 µM in [9]; 15 µM in [3]; more than 100 µM in test [4]; more than 100 µM in test [5]; more than 100 µM in test [6]. The TGI in [7] is 47.1 µM; in [8], more than 100 µM.
